The text below walks through data of ChEMBL document CHEMBL5046295 (J Med Chem, 2022).

Activity calls are given as the source filed them. The calls are words filed in the database; no cut-off is given here.

A short description of data set [1]: Solubility of the compound in DMSO. It is filed as physicochemical.
In data set [2] the target is T1, Mu-type opioid receptor (Mus musculus, UniProt P42866). Briefly: Partial agonist activity at mouse mu opioid receptor expressed in CHO cell membranes incubated for 1.5 hrs by [35S]GTPgammaS binding based liquid scintillation counting method.
T1 sequence (P42866 whole entry): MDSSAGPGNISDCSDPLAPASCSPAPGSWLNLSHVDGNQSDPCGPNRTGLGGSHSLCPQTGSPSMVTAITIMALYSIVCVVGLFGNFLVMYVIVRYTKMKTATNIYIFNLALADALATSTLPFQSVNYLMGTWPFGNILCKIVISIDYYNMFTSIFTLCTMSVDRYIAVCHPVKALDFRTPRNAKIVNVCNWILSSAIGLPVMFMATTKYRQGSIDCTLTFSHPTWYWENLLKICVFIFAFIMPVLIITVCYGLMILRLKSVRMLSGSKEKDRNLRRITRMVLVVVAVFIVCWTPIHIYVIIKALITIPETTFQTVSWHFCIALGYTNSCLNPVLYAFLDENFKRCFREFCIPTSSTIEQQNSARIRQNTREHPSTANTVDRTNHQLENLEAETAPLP
The test system of data set [3] is Mus musculus. Nature of the data set: Antinociceptive activity against Swiss Webster mouse model assessed as increase in tail withdrawal latency from warm water by measuring maximum possible effect at 10 mg/kg, sc measured after 20 min by warm water tail immersion assay. Format: functional, organism-based.
Data set [4] relates to Mus musculus. Briefly: Antinociceptive activity against Swiss Webster mouse model assessed as increase in tail withdrawal latency from warm water at 10 mg/kg, sc incubated for 5 mins followed by morphine addition and measured after 20 mins by warm water tail immersion assay. It is filed as functional, organism-based.
In data set [5] the target is T1, Mu-type opioid receptor.
Data set [6] concerns the target T2, Kappa-type opioid receptor (Mus musculus, UniProt P33534).
Description: Displacement of [3H]-diprenorphine from mouse kappa opioid receptor expressed in CHO cell membranes assessed as inhibition constant incubated for 1.5 hrs by competitive binding assay
Data set [7] addresses T3, Delta-type opioid receptor (Homo sapiens, UniProt P41143).
Description: Displacement of [3H]-diprenorphine from human delta opioid receptor expressed in CHO cell membranes assessed as inhibition constant incubated for 1.5 hrs by competitive binding assay
For data set [8], the system named is Mus musculus. Briefly: Anti-addiction activity in morphine pelleted Swiss Webster mouse assessed as wet dog shakes at 5 mg/kg, sc measured after 72 hrs. Format: functional, organism-based.
The subject of data set [9] is Mus musculus. Nature of the data set: Anti-addiction activity in morphine pelleted Swiss Webster mouse assessed as escape jumps at 5 mg/kg, sc measured after 72 hrs. It is filed as functional, organism-based.
Data set [10] concerns the target T2, Kappa-type opioid receptor. Briefly: biochemical.
Description: Antagonist activity at mouse kappa opioid receptor expressed in CHO cell membranes assessed as reduction in U50,488H induced [35S]GTPgammaS binding incubated for 1.5 hrs by liquid scintillation counting method
The target in data set [11] is T3, Delta-type opioid receptor. Nature of the data set: biochemical.
Description: Antagonist activity against human delta opioid receptor expressed in CHO cell membrane assessed as reduction in SNC80 induced [35S]GTPgammaS binding incubated for 1.5 hrs by liquid scintillation counting method
Data set [12] deals with Mus musculus. Briefly: Anti-addiction activity in morphine pelleted Swiss Webster mouse assessed as paw tremors at 5 mg/kg, sc measured after 72 hrs. Format: functional, organism-based.

T3 sequence (P41143 whole entry): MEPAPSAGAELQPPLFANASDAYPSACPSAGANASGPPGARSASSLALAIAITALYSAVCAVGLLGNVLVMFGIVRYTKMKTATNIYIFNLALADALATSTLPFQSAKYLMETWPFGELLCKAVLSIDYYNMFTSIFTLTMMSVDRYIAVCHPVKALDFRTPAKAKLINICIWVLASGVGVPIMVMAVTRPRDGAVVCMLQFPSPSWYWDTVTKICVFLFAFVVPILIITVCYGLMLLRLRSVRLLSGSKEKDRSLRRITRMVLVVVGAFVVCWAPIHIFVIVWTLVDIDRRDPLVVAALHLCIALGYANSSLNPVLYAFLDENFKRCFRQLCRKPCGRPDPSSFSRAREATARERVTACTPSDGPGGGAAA
T2 sequence (P33534 whole entry): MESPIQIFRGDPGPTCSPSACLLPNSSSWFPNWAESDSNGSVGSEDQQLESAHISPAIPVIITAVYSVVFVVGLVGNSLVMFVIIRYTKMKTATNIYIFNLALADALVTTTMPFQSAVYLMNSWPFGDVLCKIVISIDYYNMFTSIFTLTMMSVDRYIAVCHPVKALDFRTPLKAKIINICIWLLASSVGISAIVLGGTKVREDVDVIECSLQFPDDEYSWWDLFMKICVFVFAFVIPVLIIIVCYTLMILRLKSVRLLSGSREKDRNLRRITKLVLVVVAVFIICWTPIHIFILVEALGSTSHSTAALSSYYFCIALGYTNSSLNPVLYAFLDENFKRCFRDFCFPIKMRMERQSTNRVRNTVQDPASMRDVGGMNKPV

What is called EC50 is the midpoint of the concentration-response curve. A word on the Ki: it is a dissociation constant, usually derived from enzyme kinetics or from competition with a known ligand. Higher therefore signals weaker binding. Regarding `O=C(CCc1cc[nH]c1)N[C@H]1CC[C@@]2(O)[C@H]3Cc4ccc(O)c5c4[C@@]2(CCN3CC2CC2)[C@H]1O5`, the solubility entry in data set [1] is given as “Insoluble”. The EC50 on Mu-type opioid receptor [2] was determined as 3.86 nM. Moreover, in the data set with Mus musculus [3], the outcome was inactive. Moreover, in the data set with Mus musculus [4], the result was Active. Moreover, the inhibitory constant (Ki) at Mu-type opioid receptor [5] came out at 0.7 nM; in data set [6], 0.59 nM; in data set [7] it was 8.62 nM.

`O=C(N[C@H]1CC[C@@]2(O)[C@H]3Cc4ccc(O)c5c4[C@@]2(CCN3CC2CC2)[C@H]1O5)c1ccsc1`: the result with Mus musculus [3] was inactive. Besides, the outcome in the data set on Mus musculus [4], in the data set with Mus musculus [8] and in the data set with Mus musculus [9] was Active.

On to `O=C(N[C@@H]1CC[C@@]2(O)[C@H]3Cc4ccc(O)c5c4[C@@]2(CCN3CC2CC2)[C@H]1O5)c1ccco1`, for which the EC50 turned out to be 0.98 nM on Mu-type opioid receptor [2], 6.3 nM in data set [10] and 35.5 nM in data set [11]. Further, in the data set with Mus musculus [3], the result was inactive. Moreover, the result in the data set on Mus musculus [4] was Active. Also, the Ki was determined as 0.3 nM at Mu-type opioid receptor [5], 1.29 nM in data set [6] and 84.7 nM in data set [7].

As for `O=C(Cc1ccoc1)N[C@H]1CC[C@@]2(O)[C@H]3Cc4ccc(O)c5c4[C@@]2(CCN3CC2CC2)[C@H]1O5`, the EC50 at Mu-type opioid receptor [2] stood at 8.32 nM. Moreover, the result with Mus musculus [3] and in the data set on Mus musculus [4] was inactive. The results for the Ki (at Mu-type opioid receptor [5]; in data set [6]; in data set [7]) were 0.42 nM, 6.45 nM and 3.74 nM, respectively.

As to `O=C(Cc1ccco1)N[C@@H]1CC[C@@]2(O)[C@H]3Cc4ccc(O)c5c4[C@@]2(CCN3CC2CC2)[C@H]1O5`, the EC50 on Mu-type opioid receptor [2] is 0.97 nM; in data set [10], 13.3 nM; in [11], 42.3 nM. The result in the data set on Mus musculus [3] was inactive. For the same molecule, the result in the data set with Mus musculus [4] was Active. Also, the figures for the inhibition constant (Ki) (on Mu-type opioid receptor [5]; in [6]; in data set [7]) were 0.23 nM, 3.38 nM and 45.6 nM, respectively.

As to `O=C(Cc1ccoc1)N[C@@H]1CC[C@@]2(O)[C@H]3Cc4ccc(O)c5c4[C@@]2(CCN3CC2CC2)[C@H]1O5`, the EC50 on Mu-type opioid receptor [2] was 0.91 nM. Moreover, the result in the data set with Mus musculus [3] and in the data set with Mus musculus [4] was inactive. Further, the Ki at Mu-type opioid receptor [5] amounted to 0.22 nM; in data set [6], 3.68 nM; in [7], 73 nM.

Consider `O=C(Cc1ccco1)N[C@H]1CC[C@@]2(O)[C@H]3Cc4ccc(O)c5c4[C@@]2(CCN3CC2CC2)[C@H]1O5`, for which the EC50 on Mu-type opioid receptor [2] came to 2.74 nM; in data set [10] it was 85.4 nM; in [11], 6.2 nM. Also, the result in the data set on Mus musculus [3] was inactive. Further, the outcome in the data set with Mus musculus [4] was Active. The inhibition constant Ki at Mu-type opioid receptor [5] worked out at 0.59 nM; in [6], 6.67 nM; in [7], 4.61 nM.

For `O=C(N[C@H]1CC[C@@]2(O)[C@H]3Cc4ccc(O)c5c4[C@@]2(CCN3CC2CC2)[C@H]1O5)c1cc[nH]c1`, the response at Mu-type opioid receptor [2] was half-maximal at 2.21 nM (EC50). Besides, the result with Mus musculus [3] and with Mus musculus [4] was inactive. Besides, the results for the Ki (at Mu-type opioid receptor [5]; in data set [6]; in data set [7]) were 1.31 nM, 2.78 nM and 40.4 nM, respectively.

`O=C(CCc1ccc[nH]1)N[C@H]1CC[C@@]2(O)[C@H]3Cc4ccc(O)c5c4[C@@]2(CCN3CC2CC2)[C@H]1O5`: at Mu-type opioid receptor [2], the half-maximal effective concentration (EC50) turned out to be 3.79 nM. Also, the outcome in the data set with Mus musculus [3] and in the data set with Mus musculus [4] was inactive. The results for the Ki (on Mu-type opioid receptor [5]; in data set [6]; in data set [7]) were 0.58 nM, 0.54 nM and 7.58 nM, respectively.

Turning to `O=C(N[C@H]1CC[C@@]2(O)[C@H]3Cc4ccc(O)c5c4[C@@]2(CCN3CC2CC2)[C@H]1O5)c1cccs1`, the result in the data set on Mus musculus [3] was inactive. Besides, the result with Mus musculus [4], with Mus musculus [8], in the data set on Mus musculus [9] and in the data set on Mus musculus [12] was Active.
